Results taken from the NIST ThermoML archive (doi:10.1021/je2009413).

Assays:
[1] = osmotic coefficient (dimensionless); mn = molality of the nth substance listed, in mol/kg; settings: 298.15 K, Liquid, isopiestic method
[2] = mean ionic activity coefficient (dimensionless); mn = molality of the nth substance listed, in mol/kg; settings: 298.15 K, Liquid, Isopiestic method

CCC(C)[N+](CC)(CC)CC.[I-] (configuration not stated) [N,N,N-triethyl-2-butanaminium iodide] + O
Settings	mean ionic activity coefficient, [2]	osmotic coefficient, [1]
m1 = 0.0355	0.7342	0.868
m1 = 0.0419	0.7111	0.857
m1 = 0.0466	0.6955	0.849
m1 = 0.0596	0.6571	0.833
m1 = 0.0659	0.6405	0.827
m1 = 0.0701	0.6301	0.82
m1 = 0.078	0.6116	0.814
m1 = 0.0914	0.5833	0.801
m1 = 0.0985	0.5696	0.794
m1 = 0.1038	0.5599	0.79
m1 = 0.1115	0.5465	0.784
m1 = 0.1743	0.4605	0.728
m1 = 0.1756	0.459	0.728
m1 = 0.2078	0.4262	0.704
m1 = 0.2438	0.3955	0.676
m1 = 0.248	0.3922	0.673
m1 = 0.2939	0.3602	0.651
m1 = 0.338	0.3347	0.621
m1 = 0.3717	0.3178	0.616
m1 = 0.3901	0.3094	0.602
m1 = 0.431	0.2924	0.578
m1 = 0.4744	0.2766	0.57
m1 = 0.5204	0.2619	0.554
m1 = 0.5785	0.2458	0.538
m1 = 0.624	0.2347	0.525
m1 = 0.665	0.2257	0.52
m1 = 0.6928	0.22	0.508
m1 = 0.8	0.2011	0.49
m1 = 0.847	0.194	0.486
m1 = 0.9185	0.1842	0.48
m1 = 0.978	0.177	0.468
m1 = 1.091	0.1651	0.456
m1 = 1.19	0.1562	0.445
m1 = 1.306	0.1471	0.433
m1 = 1.407	0.1402	0.427
m1 = 1.545	0.132	0.413
m1 = 1.715	0.1234	0.411
m1 = 1.891	0.1159	0.407
m1 = 1.928	0.1144	0.412
m1 = 1.988	0.1122	0.407
m1 = 2.019	0.111	0.408
m1 = 2.09	0.1086	0.417
m1 = 2.172	0.1059	0.413
m1 = 2.413	0.0987	0.43

CC[N+](CC)(CC)CC(C)C.[I-] [N,N,N-triethyl-2-methyl-1-propanaminium iodide] + O
Settings	mean ionic activity coefficient, [2]	osmotic coefficient, [1]
m1 = 0.0366	0.7118	0.841
m1 = 0.0433	0.6866	0.828
m1 = 0.0483	0.6687	0.819
m1 = 0.0624	0.6257	0.795
m1 = 0.0695	0.6067	0.784
m1 = 0.0739	0.5963	0.778
m1 = 0.0824	0.5764	0.769
m1 = 0.0975	0.5439	0.751
m1 = 0.1055	0.5296	0.741
m1 = 0.1113	0.5191	0.736
m1 = 0.12	0.5042	0.729
m1 = 0.1872	0.4149	0.678
m1 = 0.1889	0.4131	0.677
m1 = 0.2234	0.3799	0.655
m1 = 0.2618	0.3493	0.63
m1 = 0.265	0.347	0.63
m1 = 0.3183	0.3131	0.601
m1 = 0.3626	0.2901	0.579
m1 = 0.4063	0.2708	0.563
m1 = 0.4229	0.2643	0.555
m1 = 0.4602	0.2508	0.541
m1 = 0.5128	0.2343	0.527
m1 = 0.5607	0.2214	0.514
m1 = 0.6289	0.2056	0.495
m1 = 0.6797	0.1956	0.482
m1 = 0.737	0.1857	0.469
m1 = 0.749	0.1837	0.47
m1 = 0.8695	0.1669	0.451
m1 = 0.9418	0.1587	0.437
m1 = 1.034	0.1496	0.426
m1 = 1.1	0.144	0.416
m1 = 1.232	0.1343	0.404
m1 = 1.352	0.1271	0.392
m1 = 1.465	0.1213	0.386
m1 = 1.595	0.1156	0.377
m1 = 1.703	0.1115	0.375
m1 = 1.891	0.1055	0.373
m1 = 2.044	0.1013	0.377
m1 = 2.096	0.0994	0.379
m1 = 2.142	0.0984	0.378
m1 = 2.163	0.0981	0.381
m1 = 2.254	0.0955	0.387
m1 = 2.308	0.0941	0.389
m1 = 2.528	0.0917	0.41

CC[N+](CC)(CC)C(C)(C)C [N,N,N-triethyl-2-methyl-2-propanaminium] + O
Settings	mean ionic activity coefficient, [2]	osmotic coefficient, [1]
m1 = 0.0342	0.7642	0.899
m1 = 0.0403	0.7444	0.891
m1 = 0.0449	0.7306	0.88
m1 = 0.0576	0.6966	0.862
m1 = 0.0639	0.6816	0.853
m1 = 0.0679	0.6725	0.847
m1 = 0.0754	0.6564	0.841
m1 = 0.088	0.6318	0.832
m1 = 0.0953	0.6187	0.82
m1 = 0.0994	0.6116	0.824
m1 = 0.1082	0.5972	0.808
m1 = 0.1645	0.5222	0.771
m1 = 0.1658	0.5208	0.771
m1 = 0.195	0.4905	0.75
m1 = 0.2257	0.4629	0.731
m1 = 0.2308	0.4586	0.723
m1 = 0.271	0.4282	0.706
m1 = 0.3095	0.4031	0.678
m1 = 0.3407	0.3851	0.671
m1 = 0.3517	0.3792	0.668
m1 = 0.383	0.3635	0.651
m1 = 0.4265	0.3439	0.634
m1 = 0.4648	0.3286	0.62
m1 = 0.5151	0.3106	0.604
m1 = 0.553	0.2985	0.592
m1 = 0.5917	0.2871	0.584
m1 = 0.61	0.2821	0.577
m1 = 0.7078	0.2583	0.554
m1 = 0.7607	0.2473	0.541
m1 = 0.8399	0.2327	0.524
m1 = 0.8805	0.2259	0.52
m1 = 0.9759	0.2118	0.509
m1 = 1.08	0.1986	0.49
m1 = 1.162	0.1896	0.487
m1 = 1.272	0.1791	0.473
m1 = 1.391	0.1693	0.459
m1 = 1.56	0.1579	0.452
m1 = 1.693	0.1504	0.455
m1 = 1.771	0.1466	0.449
m1 = 1.786	0.1459	0.454
m1 = 1.83	0.144	0.45
m1 = 1.924	0.1401	0.453
m1 = 1.99	0.1377	0.451
m1 = 2.231	0.1303	0.465

CCCC[N+](CC)(CCCC)CCCC.[I-] [N,N-dibutyl-N-ethyl-1-butanaminium iodide] + O
Settings	mean ionic activity coefficient, [2]	osmotic coefficient, [1]
m1 = 0.0378	0.6891	0.814
m1 = 0.0449	0.6605	0.799
m1 = 0.0501	0.6414	0.789
m1 = 0.0653	0.5922	0.761
m1 = 0.0727	0.5712	0.749
m1 = 0.0776	0.5582	0.741
m1 = 0.0868	0.5355	0.731
m1 = 0.1035	0.499	0.707
m1 = 0.1121	0.4824	0.698
m1 = 0.1191	0.4695	0.688
m1 = 0.1288	0.4528	0.679
m1 = 0.2082	0.3515	0.614
m1 = 0.2083	0.3515	0.609
m1 = 0.2503	0.3142	0.584
m1 = 0.292	0.2842	0.565
m1 = 0.3027	0.2774	0.551
m1 = 0.3652	0.2431	0.524
m1 = 0.4254	0.217	0.493
m1 = 0.4783	0.1981	0.478
m1 = 0.498	0.1919	0.471
m1 = 0.547	0.1778	0.456
m1 = 0.6197	0.1601	0.436
m1 = 0.6878	0.1461	0.419
m1 = 0.7684	0.1322	0.405
m1 = 0.8453	0.1209	0.388
m1 = 0.908	0.1127	0.381
m1 = 0.9478	0.108	0.371
m1 = 1.128	0.09	0.347
m1 = 1.231	0.0816	0.335
m1 = 1.337	0.0739	0.33
m1 = 1.405	0.0695	0.326
m1 = 1.548	0.0611	0.321
m1 = 1.652	0.0557	0.321
m1 = 1.751	0.051	0.323
m1 = 1.825	0.0478	0.33
m1 = 1.91	0.0443	0.334
m1 = 2.042	0.0393	0.345
m1 = 2.173	0.0349	0.354
m1 = 2.216	0.0335	0.359
m1 = 2.239	0.0328	0.362
m1 = 2.276	0.0317	0.362
m1 = 2.339	0.0299	0.372
m1 = 2.38	0.0288	0.377
m1 = 2.583	0.0236	0.402
